Data as given in patent publication US20010046684A1, “Methods of structure-based drug design using MS/MNR” (priority 2000, published 2001).

Experiments:
MMP-1 [1] = biological target: T1, MMP-1 (Homo sapiens, UniProt P03956); settings: Inhibitors of MMP-1; compounds having known affinities, previously tested; cited from earlier work
T1 sequence (P03956 100-469): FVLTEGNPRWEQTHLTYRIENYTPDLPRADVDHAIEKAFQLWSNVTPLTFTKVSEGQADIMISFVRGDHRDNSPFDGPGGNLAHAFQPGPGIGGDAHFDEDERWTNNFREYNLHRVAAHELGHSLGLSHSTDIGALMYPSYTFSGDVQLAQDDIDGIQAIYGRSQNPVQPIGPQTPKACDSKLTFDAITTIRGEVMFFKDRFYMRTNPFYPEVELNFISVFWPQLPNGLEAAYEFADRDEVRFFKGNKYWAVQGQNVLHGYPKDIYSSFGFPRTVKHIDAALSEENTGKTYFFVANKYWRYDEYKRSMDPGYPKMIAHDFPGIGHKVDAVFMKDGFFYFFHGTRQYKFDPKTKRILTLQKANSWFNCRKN

MMP-1 [2] = biological target: T1, MMP-1; assay: Gel-filtration (Sephedex G25) / ESI mass spectral analysis of binding to MMP-1; settings: 1 mM compound, 0.1 mM MMP-1, pH 6.5, room temperature, 30 minutes; unbound compound alone is retained
Procedure: 1 mM each of compounds 1, 2 and 3 (Table 1) were dissolved in DMSO and each incubated alone or in the presence of MMP-1 at a 0.1 mM in a buffer consisting of 20 mM Tris, 100 mM NaCl, 5 mM CaCl2, 0.1 mM ZnCl2, 2 mM NaN3 and 3.5 mM DTT at pH 6.5 at room temperature for 30 minutes. The final concentration of DMSO in the MMP-1:compound mixture was 5%. A total volume of 25 μl of each sample was loaded on a Sephedex G25 column in a Millipore multiscreen filtration system composed of a 0.65 μm hydrophilic durapore filter. The samples were eluted using centrifugation (15,000×g for 3 minutes). Samples were collected and analyzed by mass spectroscopy using automated ESI/MS methods in both positive and negative ionization modes with a Micromass LCT quadrapole time of flight mass spectrometer and Quattro I triple-quadrapole mass spectrometer each equipped with a Gilson 215 liquid handler.

MMP-1 [3] = biological target: T2, MMP-1 (Homo sapiens, UniProt P03956); assay: 2D 1H-15N HSQC NMR chemical shift perturbation of 15N-MMP-1; type: binding; settings: 0.2 mM 15N-MMP-1, compound 0.2-4.0 mM, pH 6.5, 35° C.
T2 construct: made in house
T2 sequence (P03956 101-269 limits assumed): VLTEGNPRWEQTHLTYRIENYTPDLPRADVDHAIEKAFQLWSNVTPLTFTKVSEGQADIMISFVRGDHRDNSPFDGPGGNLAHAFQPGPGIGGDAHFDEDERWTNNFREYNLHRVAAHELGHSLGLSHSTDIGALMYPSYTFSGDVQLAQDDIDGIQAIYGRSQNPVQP
Procedure: MMP-1 was labeled as described in Moy, J. Biomol. NMR, Vol. 10: 9-19 (1997). […] The 2D ^1H—^15N HSQC spectra were recorded with 256 complex points in t1, 2048 real points in t2, and 192 scans per increment. Spectra windows for t1 and t2 were 1723.7 and 8064.5 Hz, respectively, with the carrier at 4.75 and 115.2 ppm, respectively. Data were processed and analyzed using NMRPipe, NMRWish [F. Delaglio, S. Grzesiek, G. W. Vuister, G. Zhu, J. Pfeifer, and A. Bax J. Biomol. NMR 6, 277 (1995). ] and PIPP [D. S. Garrett, R. Powers, A. M. Gronenborn, and G. M. Clore J. Magn. Reson. 95, 214-20 (1991).] on a Sun Ultra 10 workstation. […] (FIG. 4A, 4B, 4C), i.e. stronger binding contributes to greater perturbations and weaker binding to less perturbations.

Compound | IC50 (MMP-1 [1]) [nM] | Elution of compound through size-exclusion column in presence of MMP-1 (binding detected by ESI/MS) (MMP-1 [2]) | Chemical shift perturbations in 2D 1H-15N HSQC spectrum of MMP-1 (MMP-1 [3])
3-[4-(2-Azepan-1-yl-ethoxy)-phenyl]-N-hydroxy-2-(4-methoxy-benzenesulfonyl)-2-propionamide [Compound 13] | 540 | – | –
COc1ccc(S(=O)(=O)N(Cc2cccnc2)[C@@H](C(=O)NO)C(C)C)cc1 [Compound 1, N2-(4-Methoxy-benzenesulfonyl)-N2-[(pyridin-3-yl)methyl]-N-hydroxy-D-valinamide] | – | compound bound to MMP-1 is eluted | –
COc1ccc(S(=O)(=O)N(Cc2cccnc2)c2c(C(=O)O)cccc2C(=O)NO)cc1 [Compound 2, N-Hydroxy-2-[(4-methoxy-benzenesulfonyl)-pyridin-3-ylmethyl-amino]-isophthalamic acid] | 9900 | compound bound to MMP-1 is eluted | induce chemical shift perturbations for residues in the vicinity of the catalytic Zn and S1′ pocket in the MMP-1 active site
COc1ccc(S(=O)(=O)N(CC(=O)O)c2c(C)cccc2C(=O)NO)cc1 [Compound 3, [(2-Hydroxycarbamoyl-6-methyl-phenyl)-(4-methoxy-benzenesulfonyl)-amino)-acetic acid] | 89000 | compound bound to MMP-1 is eluted | induce chemical shift perturbations for residues in the vicinity of the catalytic Zn and S1′ pocket in the MMP-1 active site
COc1ccc(S(=O)(=O)N(Cc2ccccc2)c2ccc(C)cc2C(=O)NO)cc1 [Compound 4, 2-[Benzyl-(4-methoxy-benzenesulfonyl)-amino]-N-hydroxy-5-methyl-benzamide] | 408 | – | –
COc1ccc(S(=O)(=O)C(CCC(C)C)(Cc2cccnc2)C(=O)NO)cc1 (centres unmarked) [Compound 7, 2-(4-Methoxy-benzenesulfonyl)-5-methyl-2-pyridin-3-ylmethyl-hexanoic acid hydroxyamide] | 760 | – | –
Cc1cc(Br)cc(C(=O)NO)c1N(C)S(=O)(=O)c1ccc2ccccc2c1 [Compound 11, 5-Bromo-N-hydroxy-3-methyl-2-[methyl-(naphthalene-2-sulfonyl)-amino]-benzamide] | 1100 | – | –
